Data taken from BigSolDB 2.1.

`CCOC(=O)[C@H](CCc1ccccc1)N[C@@H](C)C(=O)N1CCC[C@H]1C(=O)O.O=C(O)/C=C\C(=O)O` gave a solubility (mole fraction) (in acetone, 273.15 K) of 0.00118, a solubility (mole fraction) (in acetone, 278.15 K) of 0.00139 and a solubility (mole fraction) (in acetone, 283.15 K) of 0.00176. It also gave a solubility (mole fraction) (in acetone, 288.15 K) of 0.0021, a solubility (mole fraction) (in acetone, 293.15 K) of 0.00243 and a solubility (mole fraction) (in acetone, 298.15 K) of 0.00302. It also gave a solubility (mole fraction) (in acetone, 303.15 K) of 0.0038, a solubility (mole fraction) (in acetone, 308.15 K) of 0.00451 and a solubility (mole fraction) (in acetone, 313.15 K) of 0.0054. The solubility (mole fraction) (in acetone, 318.15 K) was 0.00651, the solubility (mole fraction) (in acetonitrile, 273.15 K) was 0.000339 and the solubility (mole fraction) (in acetonitrile, 278.15 K) was 0.000452. For the same compound, the solubility (mole fraction) (in acetonitrile, 283.15 K) was 0.000569, the solubility (mole fraction) (in acetonitrile, 288.15 K) was 0.000716 and the solubility (mole fraction) (in acetonitrile, 293.15 K) was 0.0009. The solubility (mole fraction) (in acetonitrile, 298.15 K) was 0.00117, the solubility (mole fraction) (in acetonitrile, 303.15 K) was 0.00153 and the solubility (mole fraction) (in acetonitrile, 308.15 K) was 0.00204. For the same compound, the solubility (mole fraction) (in acetonitrile, 313.15 K) was 0.00261, the solubility (mole fraction) (in acetonitrile, 318.15 K) was 0.00334 and the solubility (mole fraction) (in ethanol, 273.15 K) was 0.000616. For the same compound, the solubility (mole fraction) (in ethanol, 278.15 K) was 0.000761, the solubility (mole fraction) (in ethanol, 283.15 K) was 0.000998 and the solubility (mole fraction) (in ethanol, 288.15 K) was 0.00133. For the same compound, the solubility (mole fraction) (in ethanol, 293.15 K) was 0.00177, the solubility (mole fraction) (in ethanol, 298.15 K) was 0.00226 and the solubility (mole fraction) (in ethanol, 303.15 K) was 0.00292. It also gave a solubility (mole fraction) (in ethanol, 308.15 K) of 0.00366, a solubility (mole fraction) (in ethanol, 313.15 K) of 0.00449 and a solubility (mole fraction) (in ethanol, 318.15 K) of 0.00536. For the same compound, the solubility (mole fraction) (in ethyl acetate, 273.15 K) was 0.0013, the solubility (mole fraction) (in ethyl acetate, 278.15 K) was 0.00171 and the solubility (mole fraction) (in ethyl acetate, 283.15 K) was 0.00231. For the same compound, the solubility (mole fraction) (in ethyl acetate, 288.15 K) was 0.00304, the solubility (mole fraction) (in ethyl acetate, 293.15 K) was 0.00379 and the solubility (mole fraction) (in ethyl acetate, 298.15 K) was 0.00471. It also gave a solubility (mole fraction) (in ethyl acetate, 303.15 K) of 0.00576, a solubility (mole fraction) (in ethyl acetate, 308.15 K) of 0.00689 and a solubility (mole fraction) (in ethyl acetate, 313.15 K) of 0.00796. The solubility (mole fraction) (in ethyl acetate, 318.15 K) was 0.00941, the solubility (mole fraction) (in isopropanol, 273.15 K) was 0.000144 and the solubility (mole fraction) (in isopropanol, 278.15 K) was 0.000184. It also gave a solubility (mole fraction) (in isopropanol, 283.15 K) of 0.000242, a solubility (mole fraction) (in isopropanol, 288.15 K) of 0.000327 and a solubility (mole fraction) (in isopropanol, 293.15 K) of 0.000452. The solubility (mole fraction) (in isopropanol, 298.15 K) was 0.000605, the solubility (mole fraction) (in isopropanol, 303.15 K) was 0.000809 and the solubility (mole fraction) (in isopropanol, 308.15 K) was 0.00105. The solubility (mole fraction) (in isopropanol, 313.15 K) was 0.00133, the solubility (mole fraction) (in isopropanol, 318.15 K) was 0.00176 and the solubility (mole fraction) (in n-octanol, 273.15 K) was 0.000311. The solubility (mole fraction) (in n-octanol, 278.15 K) was 0.000406, the solubility (mole fraction) (in n-octanol, 283.15 K) was 0.000509 and the solubility (mole fraction) (in n-octanol, 288.15 K) was 0.000642. For the same compound, the solubility (mole fraction) (in n-octanol, 293.15 K) was 0.00083, the solubility (mole fraction) (in n-octanol, 298.15 K) was 0.00105 and the solubility (mole fraction) (in n-octanol, 303.15 K) was 0.00131. The solubility (mole fraction) (in n-octanol, 308.15 K) was 0.00167, the solubility (mole fraction) (in n-octanol, 313.15 K) was 0.00206 and the solubility (mole fraction) (in n-octanol, 318.15 K) was 0.00256.
In the case of `CCOC(=O)[C@H](CCc1ccccc1)N[C@@H](C)C(=O)O`, the solubility (mole fraction) (in acetone, 273.15 K) is reported as 0.00387, the solubility (mole fraction) (in acetone, 278.15 K) is reported as 0.00426 and the solubility (mole fraction) (in acetone, 283.15 K) is reported as 0.00468. The solubility (mole fraction) (in acetone, 288.15 K) was 0.00515, the solubility (mole fraction) (in acetone, 293.15 K) was 0.00568 and the solubility (mole fraction) (in acetone, 298.15 K) was 0.00627. For the same compound, the solubility (mole fraction) (in acetone, 303.15 K) was 0.007, the solubility (mole fraction) (in acetone, 308.15 K) was 0.0078 and the solubility (mole fraction) (in acetone, 313.15 K) was 0.00868. It also gave a solubility (mole fraction) (in acetone, 318.15 K) of 0.0097, a solubility (mole fraction) (in acetonitrile, 273.15 K) of 0.00012 and a solubility (mole fraction) (in acetonitrile, 278.15 K) of 0.000199. The solubility (mole fraction) (in acetonitrile, 283.15 K) was 0.000288, the solubility (mole fraction) (in acetonitrile, 288.15 K) was 0.000427 and the solubility (mole fraction) (in acetonitrile, 293.15 K) was 0.000608. It also gave a solubility (mole fraction) (in acetonitrile, 298.15 K) of 0.000907, a solubility (mole fraction) (in acetonitrile, 303.15 K) of 0.00129 and a solubility (mole fraction) (in acetonitrile, 308.15 K) of 0.00183. For the same compound, the solubility (mole fraction) (in acetonitrile, 313.15 K) was 0.00255, the solubility (mole fraction) (in acetonitrile, 318.15 K) was 0.00349 and the solubility (mole fraction) (in ethanol, 273.15 K) was 0.00273. It also gave a solubility (mole fraction) (in ethanol, 278.15 K) of 0.00281, a solubility (mole fraction) (in ethanol, 283.15 K) of 0.00294 and a solubility (mole fraction) (in ethanol, 288.15 K) of 0.00312. It also gave a solubility (mole fraction) (in ethanol, 293.15 K) of 0.00334, a solubility (mole fraction) (in ethanol, 298.15 K) of 0.0036 and a solubility (mole fraction) (in ethanol, 303.15 K) of 0.00396. The solubility (mole fraction) (in ethanol, 308.15 K) was 0.00436, the solubility (mole fraction) (in ethanol, 313.15 K) was 0.00489 and the solubility (mole fraction) (in ethanol, 318.15 K) was 0.00545. The solubility (mole fraction) (in ethyl acetate, 273.15 K) was 0.00898, the solubility (mole fraction) (in ethyl acetate, 278.15 K) was 0.0092 and the solubility (mole fraction) (in ethyl acetate, 283.15 K) was 0.00951. The solubility (mole fraction) (in ethyl acetate, 288.15 K) was 0.00991, the solubility (mole fraction) (in ethyl acetate, 293.15 K) was 0.0104 and the solubility (mole fraction) (in ethyl acetate, 298.15 K) was 0.0109. The solubility (mole fraction) (in ethyl acetate, 303.15 K) was 0.0115, the solubility (mole fraction) (in ethyl acetate, 308.15 K) was 0.0123 and the solubility (mole fraction) (in ethyl acetate, 313.15 K) was 0.0131. The solubility (mole fraction) (in ethyl acetate, 318.15 K) was 0.014, the solubility (mole fraction) (in isopropanol, 273.15 K) was 0.000921 and the solubility (mole fraction) (in isopropanol, 278.15 K) was 0.00105. For the same compound, the solubility (mole fraction) (in isopropanol, 283.15 K) was 0.0012, the solubility (mole fraction) (in isopropanol, 288.15 K) was 0.00141 and the solubility (mole fraction) (in isopropanol, 293.15 K) was 0.00164. For the same compound, the solubility (mole fraction) (in isopropanol, 298.15 K) was 0.00191, the solubility (mole fraction) (in isopropanol, 303.15 K) was 0.00221 and the solubility (mole fraction) (in isopropanol, 308.15 K) was 0.00257. It also gave a solubility (mole fraction) (in isopropanol, 313.15 K) of 0.00298, a solubility (mole fraction) (in isopropanol, 318.15 K) of 0.00346 and a solubility (mole fraction) (in n-octanol, 273.15 K) of 0.00215. For the same compound, the solubility (mole fraction) (in n-octanol, 278.15 K) was 0.00223, the solubility (mole fraction) (in n-octanol, 283.15 K) was 0.00233 and the solubility (mole fraction) (in n-octanol, 288.15 K) was 0.00246. The solubility (mole fraction) (in n-octanol, 293.15 K) was 0.00263, the solubility (mole fraction) (in n-octanol, 298.15 K) was 0.00284 and the solubility (mole fraction) (in n-octanol, 303.15 K) was 0.0031. For the same compound, the solubility (mole fraction) (in n-octanol, 308.15 K) was 0.00343, the solubility (mole fraction) (in n-octanol, 313.15 K) was 0.00378 and the solubility (mole fraction) (in n-octanol, 318.15 K) was 0.0042.
